Laboratory results: patent US20230295152A1 (SENDA BIOSCIENCES, INC., priority 2019, published 2023)

Target: T1, AHR (Homo sapiens, UniProt P35869)
T1 construct: other cell line with a DRE-luciferase reporter stably transfected; endogenous in cells; host or cells: HepG2 AhR-Lucia reporter cells
T1 sequence (P35869 11-848): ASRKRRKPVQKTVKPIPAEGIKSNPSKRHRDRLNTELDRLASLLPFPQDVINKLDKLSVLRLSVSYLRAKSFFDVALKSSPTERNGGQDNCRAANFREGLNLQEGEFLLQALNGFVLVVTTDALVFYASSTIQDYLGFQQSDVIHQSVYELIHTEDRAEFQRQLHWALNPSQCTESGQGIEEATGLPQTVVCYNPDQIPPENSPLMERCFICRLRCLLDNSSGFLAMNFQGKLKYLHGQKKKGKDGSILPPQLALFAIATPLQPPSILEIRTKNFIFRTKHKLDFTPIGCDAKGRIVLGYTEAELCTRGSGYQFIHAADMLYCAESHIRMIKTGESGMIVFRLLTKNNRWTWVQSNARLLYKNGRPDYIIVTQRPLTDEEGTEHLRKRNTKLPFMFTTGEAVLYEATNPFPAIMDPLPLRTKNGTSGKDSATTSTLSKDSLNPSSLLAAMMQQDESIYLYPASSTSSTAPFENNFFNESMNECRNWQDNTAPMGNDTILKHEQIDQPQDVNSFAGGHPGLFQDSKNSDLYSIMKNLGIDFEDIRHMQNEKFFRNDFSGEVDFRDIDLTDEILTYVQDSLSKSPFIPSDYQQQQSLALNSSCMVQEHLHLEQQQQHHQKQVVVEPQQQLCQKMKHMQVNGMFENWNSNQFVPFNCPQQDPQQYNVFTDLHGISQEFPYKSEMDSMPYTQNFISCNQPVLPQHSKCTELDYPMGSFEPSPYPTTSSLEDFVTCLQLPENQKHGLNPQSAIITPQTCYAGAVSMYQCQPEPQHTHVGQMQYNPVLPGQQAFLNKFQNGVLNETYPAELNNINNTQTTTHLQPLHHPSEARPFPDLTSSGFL
Test: DRE-Luciferase Reporter Assay, HepG2 AhR-Lucia reporter cells
Type: cell-based
Details: with AHR activating ligand at EC50, read-out: HepG2-Luc IC50
Source text: AHR binds to Dioxin Responsive Elements (DRE) upstream of genes that it activates. One measure of AHR activity is activation of a reporter gene, such as luciferase, downstream of one or multiple DRE elements. Luciferase activity will reflect activation and inhibition of AHR in the cells expressing his reporter. 20000 Human HepG2 liver carcinoma—AhR-Lucia reporter cells or Human HT29 colon adenocarcinoma—AhR reporter cells or other cell line with a DRE-luciferase reporter stably transfected were plated in Eagle's Minimal Essential Medium, 10% heat-inactivated FBS, 1× non-essential amino acids Pen-Strep (10,000 U/mL) and Normocin (100 ug/mL) in plates (96-well, 384-well or other plates) and incubated overnight at 37° C. in a CO2 incubator and treated with and without AhR antagonists at a log dilution starting at 100 uM.
After 1 hr that cells were plated an AHR activating ligand, such as TCDD, kynurenine, ITE (2-(1H-indole-3-ylcarbonyl)-4-thiazolecarboxylic methyl ester), VAF347, BNF (beta-naphthoflavone), FICZ (6-formylindolo(3,2-b) carbazole) or other AHR ligands at their specific EC50 concentration, were added to the cells with or without AHR antagonist.
Cells were incubated for 24 or 48 hours or another time point and then, supernatant was analyzed for determination of luciferase activity as a read-out of the AHR activation or inhibition. Luciferase was measured with the commercial kit QUANTI-Luc™ assay solution kit from Invivogen following the manufacturer's instructions.
The level of luciferase with only agonist ligand added was the maximum signal while the luciferase with […] was the minimum signal. IC50 values were determined as the concentration which inhibits half of the luciferase activity.

Work on O=c1c2cc(-c3ccc(Cl)cc3)nc(-c3cccnc3)c2ncn1C1COCC1O (racemic) [Compound 29] yielded an IC50 of less than 100 nM.

CC(C)[C@@H](CO)n1cnc2c(-c3cc(F)cc(F)c3)nc(-c3cc(F)cc(F)c3)cc2c1=O [Compound 35] was tested, and the IC50 was less than 100 nM.

O=c1c2cc(-c3ccc(C(F)(F)F)nc3)nc(-c3cccnc3)c2ncn1-c1cccnc1 [Compound 118, 3,8-di(pyridin-3-y1)-6-(6-(trifluoromethyl)pyridin-3-yl)pyrido[3,4-d]pyrimidin-4(3H)-one] was tested, and the IC50 was less than 100 nM.

With CN1CC(O)C(n2cnc3c(-c4cccnc4)nc(-c4ccc(Cl)cc4)cc3c2=O)C1 (centres unmarked) [Compound 128, 6-(4-chlorophenyl)-3-(4-hydroxy-1-methylpyrrolidin-3-yl)-8-(pyridin-3-yl)pyrido[3,4-d]pyrimidin-4(3H)-one] the IC50 was less than 100 nM.

Cn1cc(-c2nc(-c3ccc(C(F)(F)F)cn3)cc3c(=O)n(C[C@@H](O)C(F)(F)F)cnc23)cn1 [Compound 146] gave an IC50 of less than 100 nM.

O=c1c2cc(-c3cnc(C(F)(F)F)s3)nc(-c3cccnc3)c2ncn1[C@@H]1COC[C@H]1O [Compound 173, 3-((3R,4S)-4-hydroxytetrahydrofuran-3-yl)-8-(pyridin-3-yl)-6-(2-(trifluoromethyl)thiazol-5-yl)pyrido[3,4-d]pyrimidin-4(3H)-one] showed an IC50 of 100 to 500 nM.

In the case of C[C@@H](O)Cn1cnc2c(-c3cnn(C)c3)nc(-c3ccc(C(F)(F)F)cn3)cc2c1=O [Compound 141, (R)-3-(2-hydroxypropyl)-8-(1-methyl-1H-pyrazol-4-yl)-6-(5-(trifluoromethyl)pyridin-2-yl)pyrido[3,4-d]pyrimidin-4(3H)-one], the IC50 is reported as less than 100 nM.

Cn1cc(-c2nc(-c3ccc(C(F)(F)F)cn3)cc3c(=O)n([C@H]4COC[C@@H]4O)cnc23)cn1 [Compound 137, 3-((3S,4R)-4-hydroxytetrahydrofuran-3-yl)-8-(1-methyl-1H-pyrazol-4-yl)-6-(5-(trifluoromethyl)pyridin-2-yl)pyrido[3,4-d]pyrimidin-4(3H)-one] gave an IC50 of less than 100 nM.

Work on C[C@@H](CO)n1cnc2c(-c3cccnc3)nc(-c3ccccn3)cc2c1=O [Compound 182, (S)-3-(1-hydroxypropan-2-yl)-6-(pyridin-2-yl)-8-(pyridin-3-yl)pyrido[3,4-d]pyrimidin-4(3H)-one] yielded an IC50 of 100 to 500 nM.

In the case of C[C@@H](CO)n1cnc2c(-c3cccnc3)nc(C3=CCCCC3)cc2c1=O [Compound 77, (S)-6-(Cyclohex-1-en-1-yl)-3-(1-hydroxypropan-2-yl)-8-(pyridin-3-yl)pyrido[3,4-d]pyrimidin-4(3H)-one], the IC50 is reported as greater than 500 nM.

COC(=O)c1ccc(-c2cc3c(=O)n([C@@H](C)CO)cnc3c(-c3cccnc3)n2)cn1 [Compound 52] was tested, and the IC50 was greater than 500 nM.

CC(C)(O)Cn1cnc2c(-c3cccnc3)nc(-c3cccnc3C(F)(F)F)cc2c1=O [Compound 80] was tested, and the IC50 was greater than 500 nM.

O=c1c2cc(-c3ccc(OC(F)(F)F)cc3)nc(-c3cccnc3)c2ncn1CCO [Compound 72] showed an IC50 of less than 100 nM.

Work on C[C@@H](CO)n1cnc2c(-c3cccnc3)nc(-c3ccc(C(=O)O)nc3)cc2c1=O [Compound 97] yielded an IC50 greater than 500 nM.

Work on C[C@@H](CO)n1cnc2c(-n3cccn3)nc(-c3ccc(C(F)(F)F)cn3)cc2c1=O [Compound 167, (S)-3-(1-hydroxypropan-2-yl)-8-(1H-pyrazol-1-yl)-6-(5-(trifluoromethyl)pyridin-2-yl)pyrido[3,4-d]pyrimidin-4(3H)-one] yielded an IC50 of 100 to 500 nM.

Cn1cc(-c2cc3c(=O)n(CC(C)(C)O)cnc3c(-c3cnn(C)c3)n2)cn1 [Compound 19] showed an IC50 greater than 500 nM.

C[C@@H](CO)n1cnc2c(N3CCOCC3)nc(-c3ccc(C(F)(F)F)nc3)cc2c1=O [Compound 178, (S)-3-(1-hydroxypropan-2-yl)-8-morpholino-6-(6-(trifluoromethyl)pyridin-3-yl)pyrido[3,4-d]pyrimidin-4(3H)-one] showed an IC50 of less than 100 nM.

COC[C@H](C)n1cnc2c(-c3cccnc3)nc(-c3ccc(C)cc3)cc2c1=O [Compound 45, (S)-3-(1-methoxypropan-2-yl)-8-(pyridin-3-yl)-6-(p-tolyl)pyrido[3,4-d]pyrimidin-4(3H)-one] was tested, and the IC50 was less than 100 nM.

Work on C[C@@H](CO)n1cnc2c(-c3ccc(C(F)(F)F)nc3)nc(-c3ccc(C(F)(F)F)nc3)cc2c1=O [Compound 69] yielded an IC50 of 100 to 500 nM.

With C[C@@H](CO)n1cnc2c(-c3cccc4c3OCO4)nc(-c3ccc(Cl)cc3)cc2c1=O [Compound 3] the IC50 was 100 to 500 nM.

With Cn1cc(-c2nc(-c3cnc(C(F)(F)F)s3)cc3c(=O)n([C@H]4COC[C@@H]4O)cnc23)cn1 [Compound 171, 3-((3S,4R)-4-hydroxytetrahydrofuran-3-yl)-8-(1-methyl-1H-pyrazol-4-yl)-6-(2-(trifluoromethyl)thiazol-5-yl)pyrido[3,4-d]pyrimidin-4(3H)-one] the IC50 was less than 100 nM.

O=c1c2cc(-c3ccc(OC(F)(F)F)cc3)nc(-c3cccnc3)c2ncn1CC(O)C(F)(F)F (centres unmarked) [Compound 14] showed an IC50 of less than 100 nM.

C[C@@H](CO)n1cnc2c(C3=CCCN(C)C3)nc(-c3ccc(C(F)(F)F)nc3)cc2c1=O [Compound 91] gave an IC50 of 100 to 500 nM.

For Cn1cc(-c2nc(-c3cnc(C(F)(F)F)s3)cc3c(=O)n([C@@H]4COC[C@H]4O)cnc23)cn1 [Compound 172, 3-((3R,4S)-4-hydroxytetrahydrofuran-3-yl)-8-(1-methyl-1H-pyrazol-4-yl)-6-(2-(trifluoromethyl)thiazol-5-yl)pyrido[3,4-d]pyrimidin-4(3H)-one], the IC50 was less than 100 nM.

Compound C[C@@H](CO)n1cnc2c(-n3cccn3)nc(-c3ccc(C(F)(F)F)nc3)cc2c1=O [Compound 165, (S)-3-(1-hydroxypropan-2-yl)-8-(1H-pyrazol-1-yl)-6-(6-(trifluoromethyl)pyridin-3-yl)pyrido[3,4-d]pyrimidin-4(3H)-one] has an IC50 of less than 100 nM.

Compound Cn1cc(-c2nc(-c3ccc(Cl)cc3)cc3c(=O)n(CC(O)C(F)(F)F)cnc23)cn1 (centres unmarked) [Compound 15] has an IC50 of less than 100 nM.

For Cn1cc(-c2nc(-c3ccc(C(F)(F)F)nc3)cc3c(=O)n([C@@H]4COC[C@@H]4O)cnc23)cn1 [Compound 130, 3-((3R,4R)-4-hydroxytetrahydrofuran-3-yl)-8-(1-methyl-1H-pyrazol-4-yl)-6-(6-(trifluoromethyl)pyridin-3-yl)pyrido[3,4-d]pyrimidin-4(3H)-one], the IC50 was less than 100 nM.

Work on Cc1ncsc1-c1cc2c(=O)n([C@@H](C)CO)cnc2c(-c2cccnc2)n1 [Compound 65] yielded an IC50 of 100 to 500 nM.

In the case of C[C@@H](CO)n1cnc2c(-c3cn[nH]c3)nc(-c3ccc(C(F)(F)F)nc3)cc2c1=O [Compound 62], the IC50 is reported as less than 100 nM.

With C[C@@H](CO)n1cnc2c(-c3cccnc3)nc(-c3cncs3)cc2c1=O [Compound 84] the IC50 was greater than 500 nM.

C[C@@H](CO)n1cnc2c(-c3cncc(F)c3)nc(-c3cncc(F)c3)cc2c1=O [Compound 78] was tested, and the IC50 was 100 to 500 nM.

CC(C)c1ncc(-c2cc3c(=O)n([C@@H](C)CO)cnc3c(-c3cccnc3)n2)s1 [Compound 67] gave an IC50 of less than 100 nM.

In the case of O=c1c2cc(-c3ccc(Cl)cc3)nc(-c3cccnc3)c2ncn1CC(O)C(F)(F)F (centres unmarked) [Compound 13], the IC50 is reported as less than 100 nM.

O=c1c2cc(-c3ccc(C(F)(F)F)nc3)nc(-c3cccnc3)c2ncn1C1CCS(=O)(=O)C1 (centres unmarked) [Compound 106, 3-(1,1-dioxidotetrahydrothiophen-3-yl)-8-(pyridin-3-yl)-6-(6-(trifluoromethyl)pyridin-3-yl)pyrido[3,4-d]pyrimidin-4(3H)-one] was tested, and the IC50 was less than 100 nM.

For O=c1c2cc(-c3ccc(Cl)cc3)nc(-c3cccnc3)c2ncn1C1COCC1O (racemic) [Compound 32], the IC50 was less than 100 nM.
